The IC50 is the point on the concentration scale where inhibition reaches its midpoint.

Results on 19 molecules are retold here after patent publication US20090131527A1, “NOVEL ANTHRANILIC ACID DERIVATIVES AND CHLORIDE CHANNEL BLOCKING AGENT CONTAINING THE SAME” (Korea Institute of Science and Technology, priority 2007, published 2009).

SMILES strings stand for the structures.

The target of the assay is Cl− channel activated by Ca2+ (calcium ion-activated chloride channels) (Xenopus laevis, UniProt B5SVV6). The experiment in a line: Two-electrode voltage clamp recording of Ca2+-activated chloride current in Xenopus Laevis eggs (ionomycin/thapsigargin treated). Format: cell-based. Particulars: for IC50: calcium ion-activated chloride channel current in Xenopus Laevis eggs, activated with 5 mM Ca2+, 15 s pretreatment with chemical; for inhibitory activity of calcium activated chloride channel current (in words): compared to the conventional anthranilic acid derivatives flufenamic acid and mefenamic acid / known inhibitors. How it is done:
The prepared eggs were treated with 10 μM ionomycin (Sigma) for 30 min.
An intracellular solution was prepared by adding 0.5 mM EGTA and 1 μM Chelerythrine (Sigma) into a 1 M KCl solution, which was filled in glass microelectrodes. One of the above prepared eggs was placed on the chamber and two electrodes were inserted into opposite sides of the egg while the recording solution was poured. Current was measured by performing two-electrode voltage clamp recording according to a protocol suitable for the purpose of the experiment.
In order to activate a Ca^2+-dependent chloride channel, 5 mM Ca^2+ was treated first to the above eggs for 5 seconds. After being washed with the above recording solution for 50 seconds, and pretreated with the chemicals in the below Table 1 (treated in the order of […]) for 15 seconds, the eggs were treated with 5 mM Ca^2+ and the above chemicals (same amount as above) to measure the inhibitory concentrations of each chemical by comparing the current measured with 5 mM Ca^2+.

Cl− channel activated by Ca2+ (calcium ion-activated chloride channels), sequence (B5SVV6 entry or part of it): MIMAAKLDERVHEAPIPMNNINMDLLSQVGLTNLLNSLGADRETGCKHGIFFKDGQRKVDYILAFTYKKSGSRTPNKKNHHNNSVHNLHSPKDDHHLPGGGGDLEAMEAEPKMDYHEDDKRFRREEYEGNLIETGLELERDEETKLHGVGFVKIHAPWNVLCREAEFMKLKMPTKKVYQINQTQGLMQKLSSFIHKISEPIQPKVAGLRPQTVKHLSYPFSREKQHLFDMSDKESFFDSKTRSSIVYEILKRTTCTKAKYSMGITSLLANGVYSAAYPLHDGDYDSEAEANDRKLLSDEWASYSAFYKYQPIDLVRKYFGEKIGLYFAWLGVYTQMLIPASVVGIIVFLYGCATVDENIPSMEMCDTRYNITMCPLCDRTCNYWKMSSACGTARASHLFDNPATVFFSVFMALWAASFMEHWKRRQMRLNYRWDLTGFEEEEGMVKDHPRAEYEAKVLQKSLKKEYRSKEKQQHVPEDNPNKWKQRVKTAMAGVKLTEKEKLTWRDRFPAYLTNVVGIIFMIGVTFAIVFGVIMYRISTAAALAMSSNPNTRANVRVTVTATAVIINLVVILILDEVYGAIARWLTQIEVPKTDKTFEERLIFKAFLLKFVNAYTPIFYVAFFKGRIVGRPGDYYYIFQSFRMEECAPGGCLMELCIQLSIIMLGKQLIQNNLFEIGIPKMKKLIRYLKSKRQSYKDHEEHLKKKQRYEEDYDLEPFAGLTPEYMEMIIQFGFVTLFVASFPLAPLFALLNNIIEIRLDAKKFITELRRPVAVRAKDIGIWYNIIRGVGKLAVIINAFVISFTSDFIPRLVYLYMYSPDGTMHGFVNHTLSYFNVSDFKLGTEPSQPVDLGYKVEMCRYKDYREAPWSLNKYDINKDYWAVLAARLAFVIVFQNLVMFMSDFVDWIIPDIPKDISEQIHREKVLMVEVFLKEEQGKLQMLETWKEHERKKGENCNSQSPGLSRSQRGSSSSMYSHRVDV

Consider `O=C(O)c1ccccc1Nc1ccc([N+](=O)[O-])cc1` [N-(4-Nitrophenyl)anthranilic acid], for which the half-maximal inhibitory concentration (IC50) turned out to be 17.8 µM and the “inhibitory activity of calcium activated chloride channel current (in words)” value was “notably high inhibitory activity”. The like results for `O=C(O)c1ccccc1Nc1cccc([N+](=O)[O-])c1` [N-(3-Nitrophenyl)anthranilic acid] were, in that order, 32.1 µM and “notably high inhibitory activity”. Take `O=C(O)c1ccccc1Nc1ccccc1` [N-Phenylanthranilic acid, reference compound]: the half-maximal inhibitory concentration (IC50) came out at 88.1 µM. Consider `O=C(O)c1cc([N+](=O)[O-])ccc1Nc1ccc([N+](=O)[O-])cc1` [5-Nitro-N-(4-nitrophenyl)anthranilic acid], for which the IC50 amounted to 15.4 µM and the “inhibitory activity of calcium activated chloride channel current (in words)” value is “notably high inhibitory activity”. For `O=C(O)c1ccccc1Nc1ccc(Cl)cc1` [N-(4-Chlorophenyl)anthranilic acid] the same measures were 11.3 µM and “notably high inhibitory activity”. With `COc1ccc(Nc2ccccc2C(=O)O)cc1` [N-(4-Methoxyphenyl)anthranilic acid], the IC50 was found to be 102 µM. With `O=C(O)c1cc([N+](=O)[O-])ccc1NCCCc1ccccc1` [NPPB, 5-nitro-2-(3-phenylpropylamino)benzoic acid, reference compound], the IC50 worked out at 32.3 µM. The same measure, in the same setting: with `CC(C)c1ccc(Nc2ccccc2C(=O)O)cc1` [N-(4-Isopropylphenyl)anthranilic acid] the figure was 17 µM. In the case of `O=C(O)c1ccccc1Nc1cccc(C(F)(F)F)c1` [Flufenamic acid, reference compound], the IC50 came to 35.4 µM. Still for that read-out and setting: with `Cc1cccc(Nc2ccccc2C(=O)O)c1C` [Mefenamic acid, reference compound] the figure was 44.5 µM.

In the case of `O=C(O)c1cccnc1Nc1cccc(C(F)(F)F)c1` [Niflumic acid, reference compound], the IC50 turned out to be 37.3 µM. `O=C(O)c1ccccc1Nc1ccc(C(F)(F)F)cc1` [N-(4-Trifluoromethylphenyl)anthranilic acid]: the IC50 was 6 µM and the “inhibitory activity of calcium activated chloride channel current (in words)” value is on record as “notably high inhibitory activity”.

On to `Cc1ccc(Nc2ccccc2C(=O)O)cc1` [N-(4-Methylphenyl)anthranilic acid], for which the IC50 is 55.3 µM. Turning to `O=C(O)c1ccccc1Nc1ccc(F)cc1` [N-(4-Fluorophenyl)anthranilic acid], the IC50 is 63.1 µM. As to `O=C(O)c1ccccc1Nc1ccc(F)c(C(F)(F)F)c1` [N-(4-Fluoro-3-trifluoromethylphenyl)anthranilic acid], the IC50 stood at 14.7 µM and the “inhibitory activity of calcium activated chloride channel current (in words)” value is reported as “notably high inhibitory activity”. For `CC(C)(C)c1ccc(Nc2ccccc2C(=O)O)cc1` [N-(4-tert-Butylphenyl)anthranilic acid] the same measures were 22.9 µM and “notably high inhibitory activity”. For the molecule `O=C(O)c1c2ccccc2cc2ccccc12` [9-AC, 9-anthracene carboxylic acid, reference compound], the IC50 stood at 94.3 µM.

With `O=C(O)c1ccccc1Nc1ccccc1C(F)(F)F` [N-(2-Trifluoromethylphenyl)anthranilic acid], the IC50 was determined as 29.5 µM and the “inhibitory activity of calcium activated chloride channel current (in words)” value is “notably high inhibitory activity”. As for `O=S(=O)(O)c1cc(N=C=S)ccc1C=Cc1ccc(N=C=S)cc1S(=O)(=O)O` [DIDS, disodium 4,4′-diisothiocyano-2,2′-stilbenedisulphonic acid, reference compound], the IC50 worked out at 10.7 µM.
